Read-outs that look alike come from different tables or passages of the source.
Columns and labels:
[1] = horses; 0, 200, 600, 1800 and 5400 mg daily; cited from earlier work
[2] = zoo animals; remaining excreted unchanged; cited from earlier work
[3] = human, in vivo, po; cited from earlier work
[4] = some species; even in water dispersible forms; cited from earlier work
[5] = solubilized in medium-chain triglycerides; cited from earlier work
[6] = same patients; tocopherol in vegetable oil; cited from earlier work
[7] = 3% aqueous solution of Tween-80; cited from earlier work
[8] = rats; aqueous lecithin dispersed, containing medium chain triglycerides; cited from earlier work
[9] = Melt temperature of VEA/TPGS blends by differential scanning calorimetry; type: physicochemical
Description: In this example, miscibility of the blends was investigated by determining the melt temperature of various blend ratios. […] The mixture was heated and blended to a homogeneous blend and cooled to room temperature. The melting point of each blend was determined by differential scanning calorimetry.

[10] = Melt temperature of VEA/Myvatex Texture Lite blends by differential scanning calorimetry; type: physicochemical; conditions: VEA/Myvatex Texture Lite (wt. %); DSC
From the text: This example illustrates the affect of Myvatex Texture Lite food emulsifier on the melt temperature of VEA. The solid blend was formulated as described in Example 2.

For CC(=O)Oc1c(C)c(C)c2c(c1C)CCC(C)(CCCC(C)CCCC(C)CCCC(C)C)O2 (racemic) [dl-alpha-tocopheryl acetate], the “serum tocopherol levels with increasing dosage” value [1] is listed as “increased almost linearly” and the administered tocopherol absorbed [2] is listed as “one-half”.
In the case of Vitamin E, the absorption [3] is given as “enhanced absorption”.
For Cc1c(C)c2c(c(C)c1O)CCC(C)(CCCC(C)CCCC(C)CCCC(C)C)O2 (stereo not drawn) [tocopherol, alpha-tocopherol], the bioavailability [4] is given as “not bioavailable”, the absorption of tocopherol [5] is given as “enhanced absorption” and the “increase of tocopherol in the blood” value [6] is given as “no significant increase”.
In the case of Vitamin A, the absorption [3] is given as “enhanced absorption”.
For CC(=O)Oc1c(C)c(C)c2c(c1C)CCC(C)(CCC[C@H](C)CCC[C@H](C)CCCC(C)C)O2 (mixture of isomers) [VEA, d- or dl-alpha-tocopheryl acetate], the “absorption rate relative to vegetable oil solution of VEA” value [7] is given as “twice the rate”, the absorption of tocopherol [8] is given as “enhanced absorption” and the “Melt Temperature” value ([9]; VEA/TPGS (wt. %), DSC) is given as 2.9 °C. For the same molecule, the “TPGS required to solidify VEA” value ([9]; at room temperature) was 25%, the bioavailability [4] was “not bioavailable” and the “Melt Temperature” value [10] was 2.9 °C.

Reference: US5179122A, “Nutritional supplement containing Vitamin E” (priority 1991, dated 1993)
